The test can be described thus: Accumulation of intravascularly injected oncolytic adenovirus in EL4 tumours (hexon staining, qPCR of viral DNA). The conditions noted are these: 1 μg TNF; tumours 100 mm^3; versus vehicle; FIG. 1B. It counts as in vivo, SCID-beige female mice. The protocol:
All adenoviruses were grown in 293 cells, and purified by double banding in CsCl gradients with Benzonase treatment after the first banding. Viral particle (VP) number was determined by measuring DNA content, using a PicoGreen assay (Invitrogen, Carlsbad, Calif.) (Murakami and McCaman, 1999, Anal Biochem; 274(2):283-8).
EL4 cells (2×10^6) were injected subcutaneously and allowed to form tumours in the left flank of 4- to 6-week-old SCID-beige female mice. Evans Blue was administered intravenously to compare permeability in 1 μg TNFα-treated animals versus controls. Oncolytic adenovirus was injected intravascularly when tumours were 100 mm^3 and relative distribution was assessed by hexon staining and quantitative polymerase chain reaction measurement of viral DNA.
To assess distribution of adenovirus in 1 μg TNF-treated animals versus controls, oncolytic adenovirus was injected intravascularly when tumours were 100 mm^3 and the relative distribution was assessed by hexon staining and quantitative polymerase chain reaction measurement of viral DNA. Three controls were also used.
Virus accumulation in the tumour was compared to that in the liver and in the spleen.

For “Angiotensin II (DRVYIHPF; Angiotensin-2; UniProt P01019 25-32, looked up) [control reported to increase tumour vessel permeability]”, the “increase in accumulation (uptake) of intravenously administered adenovirus particles in tumours” value is listed as “increases were small compared to TNF”.

Consider `COc1cc(/C=C\c2ccc(OC)c(OP(=O)(O)O)c2OP(=O)(O)O)cc(OC)c1OC` [combrestatin (OXI4503), combrestatin], for which the “increase in accumulation (uptake) of intravenously administered adenovirus particles in tumours” value was “increases were small compared to TNF”.

Source of the values: US11744877B2, “Method for permeabilizing tumor vasculature using a tumor vasculature permeabilizing molecule to improve access of a therapeutic or diagnostic agent to a tumor” (OXFORD UNIVERSITY INNOVATION LIMITED, priority 2010, dated 2023).
